# Values of other authors as cited in article PMC6225257 (Molecules : A Journal of Synthetic Chemistry and Natural …, 2018).
# Conditions: patients with chronic kidney disease; ref [18]
# Source text: Here, we conjugated P88 to a paramagnetic MRI CA comprising a chelator (1,4,7,10-tetraazacyclododecane-1,4,7,10-tetraacetic acid, DOTA) complexed with GdCl3 to solve eventual limitations of the superparamagnetic CAs and pave the way towards future clinical implementation. Gadolinium (Gd)-based CAs (GBCA) are routinely employed in radiology as diagnostic agents.
substance,measurement,value
Gd-DOTA,effect on renal function,does not affect renal function
